Reference: patent US20060094783A1 (Tava Pharmaceutical Industries, Ltd., priority 1990, published 2006)
Counter-ions that a name gives are not always drawn. Like-named read-outs stand apart in the source and are kept apart here.

What was measured:
[1] = tested on: Metrazol seizure threshold in mice; details: Kupferberg 1989; cited from earlier work
MAO-A [2] = biological target: T1, MAO-A (Rattus norvegicus, UniProt P21396); assay: Rat brain MAO inhibition by propargylamines (Table IA), A form; format: biochemical; details: between the two epimers
T1 construct: MAO activity determined in brain and liver; from tissue; host or cells: brain and liver of male Sprague-Dawley-derived rats
T1 sequence (P21396 1-526): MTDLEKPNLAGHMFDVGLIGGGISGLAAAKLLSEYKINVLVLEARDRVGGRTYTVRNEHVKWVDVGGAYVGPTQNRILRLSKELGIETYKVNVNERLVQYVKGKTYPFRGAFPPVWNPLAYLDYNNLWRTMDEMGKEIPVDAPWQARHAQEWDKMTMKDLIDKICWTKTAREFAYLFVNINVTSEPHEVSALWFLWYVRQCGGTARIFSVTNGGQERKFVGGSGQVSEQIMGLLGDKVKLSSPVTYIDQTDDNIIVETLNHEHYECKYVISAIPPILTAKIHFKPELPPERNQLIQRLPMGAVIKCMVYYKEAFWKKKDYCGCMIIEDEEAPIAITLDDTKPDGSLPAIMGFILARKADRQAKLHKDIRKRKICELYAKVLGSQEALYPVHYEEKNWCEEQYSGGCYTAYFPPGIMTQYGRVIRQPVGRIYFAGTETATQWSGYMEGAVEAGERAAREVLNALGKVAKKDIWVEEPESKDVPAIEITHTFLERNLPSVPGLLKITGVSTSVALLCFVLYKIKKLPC

MAO [3] = details: inhibiting oxidative deamination of tyramine, rat brain homogenate; cited from earlier work
[4] = tested on: MPTP-induced striatal DA and DOPAC depletions in mice; assay: Suppression of MPTP-induced dopaminergic toxicity (striatal DA and DOPAC); format: in vivo, mouse; details: PAI […] i.p., deprenyl 5 mg/kg i.p., 5 days
MAO [5] = details: rat liver homogenate; cited from earlier work
MAO-A [6] = biological target: T1, MAO-A; assay: Inhibition of MAO activity in vivo, acute treatment, MAO-A; details: for IC-50 MAO-A: rat
[7] = tested on: tyramine pressor response in conscious rats; assay: Potentiation of tyramine pressor effect in conscious rats; format: in vivo, rat
Method: The left carotid artery and jugular vein were cannulated with fine polytene tubing (artery) or fine silicone rubber tubing connected to polyethylene tubing (vein), the distal end of which was brought under the skin to an anchor point behind the neck. The tubing was filled with heparinized saline solution, and plugged with a fine steel rod. The animals were treated with 2. mg chloramphenicol by intramuscular injection and allowed to recover from the operation overnight. The following day, the rats were placed in a high-walled container permitting free movement. […] Following an equilibration period of 30 to 40 minutes, tyramine injections (50 or 100 μg) were given, and blood pressure-responses recorded. An interval of at least 15 minutes was maintained between injections after return of blood pressure to control values. Control pressor responses were established, then one of the drugs was injected intraperitoneally, and tyramine responses were repeated over the next 4 hours. The area under the blood pressure response curve was estimated, and the ratio of this area after treatment to before treatment and to 1 to 3 hours after injection of the compounds, was determined using the average of 3 to 4 values obtained in the control period.

MAO-B [8] = biological target: T2, MAO-B (Rattus norvegicus, UniProt P19643); details: rat whole brain, 1 mg/kg i.p. single dose
T2 sequence (P19643 1-520): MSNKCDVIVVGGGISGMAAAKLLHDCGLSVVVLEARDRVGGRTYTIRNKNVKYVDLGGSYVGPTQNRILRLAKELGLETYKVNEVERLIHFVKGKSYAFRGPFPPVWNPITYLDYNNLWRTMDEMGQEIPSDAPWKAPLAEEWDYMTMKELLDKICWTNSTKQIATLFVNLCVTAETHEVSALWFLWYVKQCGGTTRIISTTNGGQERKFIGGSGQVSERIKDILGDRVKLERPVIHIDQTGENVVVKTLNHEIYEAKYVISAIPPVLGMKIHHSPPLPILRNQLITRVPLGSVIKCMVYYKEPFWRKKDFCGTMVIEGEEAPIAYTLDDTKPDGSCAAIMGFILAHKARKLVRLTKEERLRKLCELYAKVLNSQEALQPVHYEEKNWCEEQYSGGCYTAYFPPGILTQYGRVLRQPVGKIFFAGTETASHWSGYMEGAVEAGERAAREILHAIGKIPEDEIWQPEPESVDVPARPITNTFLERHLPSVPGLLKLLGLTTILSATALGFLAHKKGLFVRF
Method: Activity of MAO-B was determined in whole brain tissues as described hereinabove.

MAO-B [9] = biological target: T2, MAO-B; assay: Inhibition of MAO activity in vivo, acute treatment, MAO-B; set-up: in a rat brain preparation of MAO; host or cells: rat brain preparation; details: for IC-50 MAO-B: I.P., 1 h after dose
[10] = tested on: passive avoidance response in young rats; assay: Passive avoidance test in young rats (memory); format: in vivo, rat
From the text: The effect of R(+)-PAI and S(−)-PAI on the improvement or restoration of memory was investigated in the passive avoidance test. If the drug is effective, it increases the latency of response to enter a dark compartment or chamber where an electroshock has been experienced earlier by the rat being tested. The latency of the maximal response is 300 seconds.

MAO-B [11] = biological target: T2, MAO-B; assay: Inhibition of MAO activity in vitro, rat brain homogenate, PEA substrate; format: biochemical; set-up: in a rat brain preparation of MAO; host or cells: rat brain preparation
Method: The MAO enzyme source was a homogenate of rat brain in 0.3M sucrose, which was centrifuged at 600 g for 15 minutes. […] Substrate concentrations used were 50 uM (PEA) and 1 mM (5-HT). In the case of PEA, enzyme concentration was chosen so that not more than 10% of the substrate was metabolized during the course of the reaction. […] The column was washed with 1.5 ml water, the eluates pooled and the radioactive content determined by liquid scintillation spectrometry. Since the amine substrates are totally retained on the column, radioactivity in the eluate indicates the production of neutral and acidic metabolites formed as a result of MAO activity. Activity of MAO in the sample was expressed as a percentage of control activity in the absence of inhibitors after subtraction of appropriate blank values. The activity determined using PEA as substrate is referred to as MAO-B, and that determined using 5-HT as MAO-A.

rabbit jejunum = assay: Tyramine potentiation in isolated jejunum preparation
Method: Peripheral effects of the hydrochloride salts of the enantiomers of PAI were determined in isolated rabbit or guinea-pig small intestine. These observations provide useful information on their relative peripheral side effects in humans. The first point of contact of the subject with an orally administered drug is the gastrointestinal tract where concentrations of the drug are much higher than after absorption and distribution. In the case of PAI hydrochloride (Mw=208), a 10 mg oral dose contained in a liquid volume of about 100 ml would be equivalent to a concentration of about 0.5 mM. In contrast, the therapeutic plasma concentration of (R)-PAI hydrochloride is in the nanomolar range.

[12] = tested on: maximal electroshock seizures in mice; assay: Maximal electroshock test (MES test) in mice; format: in vivo, mouse; details: i.p.
From the text: (§1) The MES test is a classical model to indicate efficacy for partial and generalized seizures in humans. The agents' mechanism of action is via their ability to prevent the spread of seizures. Some agents, however, that prevent seizure spread have the side effect of lowering seizure threshold. These agents therefore have both proconvulsive and anticonvulsive side effects.

[13] = tested on: maximal electroshock seizures in rats; assay: Maximal electroshock test (MES test) in rats; format: in vivo, rat; details: p.o., 50 mg/kg
From the text: as §1

guinea-pig ileum [14] = assay: Antagonism of bethanechol-induced (fixed dose) contractions of guinea-pig ileum; details: bethanechol 0.8 μM
guinea-pig ileum [15] = assay: Antagonism of histamine-induced contractions of guinea-pig ileum; details: histamine 40 nM
guinea-pig ileum [16] = assay: Antagonism of bethanechol-induced contractions of guinea pig ileum in presence of 400 μM PAI HCl enantiomer; details: 400 μM enantiomer
[17] = pretreatment 1 h before MPTP 30 mg/kg s.c.

O=C1NC(=O)C(c2ccccc2)(c2ccccc2)N1 [phenytoin]
effect on time to first focal seizure and onset of clonus (proconvulsive activity) [1]: do not show this effect

C#CCN(C)C1CCCc2ccccc21 (stereo not drawn) [Example 2-MPAI, N-Methyl-N-propargyl-1-aminotetralin]
Relative potency A (+/− or R/S) (MAO-A [2]): 3

C#CCN(C)[C@H](C)Cc1ccccc1 [DEPRENYL R, reference compound]
times more potent than the S-(+) enantiomer (MAO [3]): 500 times | striatal DA ([4]; drug alone): 170.6 ± 7.1 ng/mg protein | striatal DOPAC ([4]; drug alone): 5.6 ± 0.3 ng/mg protein | striatal DA [4, 17]: 197.0 ± 8.0 ng/mg protein | striatal DOPAC [4, 17]: 6.4 ± 0.5 ng/mg protein | times as potent as the S enantiomer (MAO [5]): 15 times

C#CCN[C@@H]1CCc2ccccc21 [R(+)PAI, R(+)-N-propargyl-1-aminoindan]
inhibition of MAO-A (MAO-A [6]; rat brain, 0.5 mg/kg oral): no detectable inhibition | IC-50 MAO-A (MAO-A [6]; I.P., brain, 1 h after dose): 1.2 mg/kg | IC-50 MAO-A (MAO-A [6]; I.P., liver, 1 h after dose): 5 mg/kg | IC-50 MAO-A (MAO-A [6]; P.O., brain, 2 h after dose): >5 mg/kg | IC-50 MAO-A (MAO-A [6]; P.O., liver, 2 h after dose): >5 mg/kg | potentiation of tyramine pressor response (in words) ([7]; 1 mg/kg): no significant potentiation | potentiation of tyramine pressor response (in words) ([7]; 5 mg/kg): significant potentiation | striatal DOPAC [4, 17]: 6.0 ± 0.3 ng/mg protein | time of maximal inhibition of MAO-B after injection (MAO-B [8]): 6 h | inhibition of MAO-B in brain and liver (MAO-B [9]; 1 mg/kg): complete inhibition | IC-50 MAO-B (MAO-B [9]; brain): 0.07 mg/kg | IC-50 MAO-B (MAO-B [9]; liver): 0.06 mg/kg | percent increase of latency After Electroshock vs corresponding group ([10]; Protocol A, anoxia-lesioned rats): 19% | percent increase of latency After Electroshock vs corresponding group ([10]; Protocol A, control rats): +9% | percent increase of latency After Electroshock vs corresponding group ([10]; Protocol B, anoxia-lesioned rats): +15% | percent increase of latency After Electroshock vs corresponding group ([10]; Protocol B, control rats): +23% | times more active for inhibition of MAO-B than MAO-A (MAO-B [11]): 29 times | times more active than S(−)PAI as inhibitor of MAO-B (MAO-B [11]): ~7,000 times | times more active than S(−)PAI as inhibitor of MAO-B (MAO-B [11]; listed as R(+)-PAI): about 7000 times

NC(=O)N1c2ccccc2C=Cc2ccccc21 [carbamazepine]
effect on time to first focal seizure and onset of clonus (proconvulsive activity) [1]: do not show this effect

C#CCNC1CCCc2ccccc21 (racemic) [Example 1-PAT, N-propargyl-1-aminotetralin]
Relative potency A (+/− or R/S) (MAO-A [2]): 4

C#CCN[C@H]1CCc2ccccc21 [(S)-PAI HCl, S-(−)-N-Propargyl-1-aminoindan hydrochloride]
Percent relaxation (rabbit jejunum; PAI HCl enantiomer alone, 0.2-4.0 μM): 0 | Percent relaxation (rabbit jejunum; tyramine 40 μM after 0.2 μM PAI HCl enantiomer): 0 | Percent relaxation (rabbit jejunum; tyramine 40 μM after 2 μM PAI HCl enantiomer): 35 | Percent relaxation (rabbit jejunum; tyramine 40 μM after 40 μM PAI HCl enantiomer): 33-50 | ED50 anticonvulsant activity [12]: 57 mg/kg | animals protected from seizures [13]: Four out of four | Percent relaxation (guinea-pig ileum [14]; PAI concentration 20 μM): 40-50 | Percent relaxation (guinea-pig ileum [14]; PAI concentration 60 μM): 60-70 | Percent relaxation (guinea-pig ileum [14]; PAI concentration 100 μM): 100 | Percent relaxation (guinea-pig ileum [14]; PAI concentration 300 μM): 100 | Percent relaxation (guinea-pig ileum [15]; PAI concentration 2 μM): 11 | Percent relaxation (guinea-pig ileum [15]; PAI concentration 4 μM): 15 | Percent relaxation (guinea-pig ileum [15]; PAI concentration 10 μM): 30 | Percent relaxation (guinea-pig ileum [15]; PAI concentration 20 μM): 20 | Percent relaxation (guinea-pig ileum [15]; PAI concentration 30 μM): 33 | Percent relaxation (guinea-pig ileum [15]; PAI concentration 40 μM): 36 | Percent relaxation (guinea-pig ileum [15]; PAI concentration 100 μM): 71 | Percent relaxation (guinea-pig ileum [15]; PAI concentration 200 μM): 90 | Percent relaxation (guinea-pig ileum [15]; PAI concentration 400 μM): 98 | Percent relaxation (guinea-pig ileum [15]; PAI concentration 1000 μM): 100 | gram-tension (guinea-pig ileum [16]; bethanechol 0.8 μM): 0 gram-tension | gram-tension (guinea-pig ileum [16]; bethanechol 2 μM): 0 gram-tension | gram-tension (guinea-pig ileum [16]; bethanechol 4 μM): 0 gram-tension | gram-tension (guinea-pig ileum [16]; bethanechol 8 μM): 0.6 gram-tension | gram-tension (guinea-pig ileum [16]; bethanechol 40 μM): 1.7 gram-tension
